Test results reported in patent publication US6355799B1, “Substituted benzene compounds, process for their preparation, and herbicidal and defoliant compositions containing them” (ISK Americas Incorporated, priority 1997, dated 2002).

Experiments:
Format in all cases: in vivo
[1] = tested on: redroot pigweed (Amaranthus retroflexus, AMARE); test: Pre-emerge test, greenhouse herbicide activity screening
Summary of the method: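 Plants grown in 10 cm pots of sandy loam mix received acetone-dissolved compounds through a moving flat-fan nozzle. Doses ranged from 15 to 1000 g ai/ha. Pre-emerge pots were seeded one day earlier, post-emerge pots 8–21 days earlier. Fourteen days on, each pot was graded 0–100 for damage.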

[2] = tested on: barnyardgrass (Echinochloa crus-galli, ECHCG); test: as above
Summary of the method: (§1)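 Compounds in acetone were track-sprayed at 15–1000 g ai/ha: pre-emergence onto soil sown the previous day, then top-watered to incorporate and later bottom-watered; post-emergence onto 2–3 leaf plants with 0.25% v/v surfactant, bottom-watered only. Ratings on a 0–100 phytotoxicity scale were taken at day 14.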

[3] = tested on: green foxtail (Setaria viridis, SETVI); test: as above
Summary of the method: as §1

[4] = tested on: ivyleaf morningglory (Ipomoea hederacea, IPOHE); test: as above
Summary of the method: as §1

[5] = tested on: johnsongrass (Sorghum halepense, SORHA); test: as above
Summary of the method: as §1

[6] = tested on: lambsquarters (Chenopodium album, CHEAL); test: as above
Summary of the method: as §1

[7] = tested on: large crabgrass (Digitaria sanguinalis, DIGSA); test: as above
Summary of the method: as §1

[8] = tested on: sicklepod (Cassia obtusifolia, CASOB); test: as above
Summary of the method: as §1

[9] = tested on: velvetleaf (Abutilon theophrasti, ABUTH); test: as above
Summary of the method: as §1

[10] = tested on: field corn (Zea mays L., var. Dekalb 535, CORN); test: Pre-emerge test, crop safety
Summary of the method: (§2)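 Sandy loam pots; pre-emerge: sown 1 d pre-spray, surface-watered after, then bottom-watered. Post-emerge: sown 8–21 d before, 2–3 leaf stage, + 0.25% v/v NIS, bottom-watered. Acetone, 187 l/ha track spray, 15–1000 g ai/ha. 0–100 injury score, day 14.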

[11] = tested on: upland rice (Oryza sp., var. Tebonnet, RICE); test: Pre-emerge test, crop safety
Summary of the method: as §2

[12] = pre-emerge, rate 63 g ai/ha, phytotoxicity rating 0-100 at 14 days after application
[13] = pre-emerge, rate 250 g ai/ha, phytotoxicity rating 0-100 at 14 days after application
[14] = crop damage, pre-emerge, rate 63 g ai/ha, phytotoxicity rating 0-100 at 14 days after application
[15] = crop damage, pre-emerge, rate 250 g ai/ha, phytotoxicity rating 0-100 at 14 days after application
[16] = 63 g ai/ha, phytotoxicity rating 0-100, 14 days after application
[17] = 250 g ai/ha, phytotoxicity rating 0-100, 14 days after application
[18] = 63 g ai/ha, crop damage rating 0-100, 14 days after application
[19] = 250 g ai/ha, crop damage rating 0-100, 14 days after application

C#CCOc1c(Cl)cc(Cl)c(-n2nnn(CCCF)c2=O)c1N [Compound 5-15]
0: Pre-emerge Herbicidal Activity AMARE [1, 12] | Pre-emerge Herbicidal Activity AMARE [1, 13] | Pre-emerge Herbicidal Activity ECHCG [2, 12] | Pre-emerge Herbicidal Activity ECHCG [2, 13] | Pre-emerge Herbicidal Activity SETVI [3, 12] | Pre-emerge Herbicidal Activity SETVI [3, 13] | Pre-emerge Herbicidal Activity IPOHE [4, 12] | Pre-emerge Herbicidal Activity IPOHE [4, 13] | Pre-emerge Herbicidal Activity SORHA [5, 12] | Pre-emerge Herbicidal Activity SORHA [5, 13] | Pre-emerge Herbicidal Activity CHEAL [6, 12] | Pre-emerge Herbicidal Activity CHEAL [6, 13] | Pre-emerge Herbicidal Activity DIGSA [7, 12] | Pre-emerge Herbicidal Activity DIGSA [7, 13] | Pre-emerge Herbicidal Activity CASOB [8, 12] | Pre-emerge Herbicidal Activity CASOB [8, 13] | Pre-emerge Herbicidal Activity ABUTH [9, 12] | Pre-emerge Herbicidal Activity ABUTH [9, 13] | Pre-emerge Herbicidal Activity CORN [10, 14] | Pre-emerge Herbicidal Activity CORN [10, 15] | Pre-emerge Herbicidal Activity RICE [11, 14] | Pre-emerge Herbicidal Activity RICE [11, 15]

COc1c(Cl)cc(F)c(-n2nnn(CCCF)c2=O)c1N [Compound 5-3]
95: Pre-emerge Herbicidal Activity SORHA [5, 13]
0: Pre-emerge Herbicidal Activity ECHCG [2, 12] | Pre-emerge Herbicidal Activity IPOHE [4, 12] | Pre-emerge Herbicidal Activity SORHA [5, 12] | Pre-emerge Herbicidal Activity CASOB [8, 12] | Pre-emerge Herbicidal Activity CORN [10, 14] | Pre-emerge Herbicidal Activity CORN [10, 15]
60: Pre-emerge Herbicidal Activity AMARE [1, 12]
70: Pre-emerge Herbicidal Activity SETVI [3, 12]
20: Pre-emerge Herbicidal Activity ECHCG [2, 13] | Pre-emerge Herbicidal Activity RICE [11, 14] | Pre-emerge Herbicidal Activity RICE [11, 15]
100: Pre-emerge Herbicidal Activity AMARE [1, 13] | Pre-emerge Herbicidal Activity SETVI [3, 13] | Pre-emerge Herbicidal Activity CHEAL [6, 12] | Pre-emerge Herbicidal Activity CHEAL [6, 13] | Pre-emerge Herbicidal Activity DIGSA [7, 13] | Pre-emerge Herbicidal Activity ABUTH [9, 12] | Pre-emerge Herbicidal Activity ABUTH [9, 13]
30: Pre-emerge Herbicidal Activity DIGSA [7, 12] | Pre-emerge Herbicidal Activity CASOB [8, 13]
10: Pre-emerge Herbicidal Activity IPOHE [4, 13]

COc1c(Cl)cc(F)c(-n2c(=O)cc(C(F)(F)F)n(C)c2=O)c1NC(=O)N(Cc1ccccc1)c1ccccc1 [Compound 3-23]
40: Pre-emerge Herbicidal Activity ABUTH [9, 17]
0: Pre-emerge Herbicidal Activity AMARE [1, 16] | Pre-emerge Herbicidal Activity AMARE [1, 17] | Pre-emerge Herbicidal Activity ECHCG [2, 16] | Pre-emerge Herbicidal Activity ECHCG [2, 17] | Pre-emerge Herbicidal Activity SETVI [3, 16] | Pre-emerge Herbicidal Activity SETVI [3, 17] | Pre-emerge Herbicidal Activity IPOHE [4, 16] | Pre-emerge Herbicidal Activity IPOHE [4, 17] | Pre-emerge Herbicidal Activity SORHA [5, 16] | Pre-emerge Herbicidal Activity SORHA [5, 17] | Pre-emerge Herbicidal Activity CHEAL [6, 16] | Pre-emerge Herbicidal Activity DIGSA [7, 16] | Pre-emerge Herbicidal Activity DIGSA [7, 17] | Pre-emerge Herbicidal Activity CASOB [8, 16] | Pre-emerge Herbicidal Activity CASOB [8, 17] | Pre-emerge Herbicidal Activity ABUTH [9, 16] | Pre-emerge Herbicidal Activity CORN [10, 18] | Pre-emerge Herbicidal Activity CORN [10, 19] | Pre-emerge Herbicidal Activity RICE [11, 18] | Pre-emerge Herbicidal Activity RICE [11, 19]
70: Pre-emerge Herbicidal Activity CHEAL [6, 17]

COc1c(Cl)cc(F)c(-n2c(=O)n3n(c2=O)CCCC3)c1N [9-4]
70: Pre-emerge Herbicidal Activity SETVI [3, 13]
50: Pre-emerge Herbicidal Activity IPOHE [4, 13]
60: Pre-emerge Herbicidal Activity AMARE [1, 12] | Pre-emerge Herbicidal Activity DIGSA [7, 13] | Pre-emerge Herbicidal Activity CASOB [8, 13]
0: Pre-emerge Herbicidal Activity ECHCG [2, 12] | Pre-emerge Herbicidal Activity SETVI [3, 12] | Pre-emerge Herbicidal Activity SORHA [5, 12] | Pre-emerge Herbicidal Activity DIGSA [7, 12] | Pre-emerge Herbicidal Activity CORN [10, 14] | Pre-emerge Herbicidal Activity CORN [10, 15] | Pre-emerge Herbicidal Activity RICE [11, 14]
10: Pre-emerge Herbicidal Activity ECHCG [2, 13] | Pre-emerge Herbicidal Activity IPOHE [4, 12] | Pre-emerge Herbicidal Activity RICE [11, 15]
80: Pre-emerge Herbicidal Activity CHEAL [6, 13]
90: Pre-emerge Herbicidal Activity ABUTH [9, 12]
100: Pre-emerge Herbicidal Activity AMARE [1, 13] | Pre-emerge Herbicidal Activity ABUTH [9, 13]
30: Pre-emerge Herbicidal Activity SORHA [5, 13] | Pre-emerge Herbicidal Activity CHEAL [6, 12] | Pre-emerge Herbicidal Activity CASOB [8, 12]
